In brackets after ≈: the same amount, converted by molar mass.
Key:
[1] = system: rifampin resistant (RIF:rpoBS450L) strain (ATCC #35838); type: cell-based, Mycobacterium tuberculosis
[2] = system: moxifloxacin resistant (MOX: gyrD94K) strain (MOX3); type: cell-based, Mycobacterium tuberculosis
[3] = system: isoniazid resistant (INH: katGdel) strain (MS015); test: microbe, parasite or virus in culture; type: cell-based; details: Mycobacterium tuberculosis, H37RV, read-out: MIC H37Rv (katG^del)

SMILES | MIC H37Rv (rpoB^S450L) [1] | MIC H37Rv (gyrA^D94K) [2] | MIC [3]
Cc1cc2nc(SCC(=O)N(C(C)C)C(C)C)[nH]c2cc1C [Example 2, 2-[(5,6-dimethyl-1H-1,3-benzodiazol-2-yl)sulfanyl]-N,N-bis(propan-2-yl)acetamide] | 0.25 µg/mL (≈ 0.783 µM) | 0.5 µg/mL (≈ 1.57 µM) | 0.5 µg/mL (≈ 1.57 µM)
CC(C)N(C(=O)CCc1nc2cc(Cl)c(Cl)cc2[nH]1)C(C)C [Example 19] | ≤0.125 µg/mL | ≤0.125 µg/mL | ≤ 0.125 µg/mL
Cc1cc2nc(CCC(=O)N(C(C)C)C(C)C)[nH]c2cc1C [Example 21A] | 0.25 µg/mL (≈ 0.829 µM) | ≤0.125 µg/mL | ≤ 0.125 µg/mL

— patent US20240132479A1, “THERAPEUTIC COMPOUNDS AND USES THEREOF” (Board of Trustees of Michigan State University, priority 2021, published 2024)
